For eleven molecules, Ki results are on record in patent US6013673A, “Naphthyloxy acetic acid derivatives” (Ono Pharmaceutical Co., Ltd., priority 1994, dated 2000).

Structures are written as SMILES.

This experiment concerns the target T1, prostanoide receptor subtype (mouse EP3 α) (Mus musculus, UniProt P30557).
T1 construct: expressed in transfected cells; host or cells: CHO cells (membrane fraction)
T1 sequence (P30557 1-365): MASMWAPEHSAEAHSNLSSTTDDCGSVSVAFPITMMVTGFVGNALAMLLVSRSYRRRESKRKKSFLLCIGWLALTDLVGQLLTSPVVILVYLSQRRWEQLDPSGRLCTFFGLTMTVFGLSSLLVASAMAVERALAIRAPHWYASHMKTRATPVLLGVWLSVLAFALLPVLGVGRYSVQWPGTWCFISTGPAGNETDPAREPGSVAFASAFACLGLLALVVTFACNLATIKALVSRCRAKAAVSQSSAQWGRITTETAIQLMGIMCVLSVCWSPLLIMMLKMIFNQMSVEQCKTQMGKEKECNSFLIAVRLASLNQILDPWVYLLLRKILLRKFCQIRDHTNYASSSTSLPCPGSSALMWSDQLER
Briefly: Binding assay using expression cell of prostanoide receptor subtype ([3H]-PGE2 competition). The following applies: membrane fraction of CHO cells expressing mouse EP3 α; 2.5 nM [3H]-PGE2; 1 hour, room temperature; buffer pH6.0; Ki=IC50/(1+([C]/Kd)); read-out: Ki (dissociation constant). As for the experimental part:
For example, in standard laboratory test, the effects of the compounds of the present invention were confirmed by inhibitory effect on binding PGE2 using expression cell of mouse receptor.
Binding Assay Using Expression Cell of Prostanoide Receptor Subtype
The preparation of membrane fraction was carried out according to the method of Sugimoto et al [J. Biol. Chem. 267, 6463-6466(1992)], using expression CHO cell of prostanoide receptor subtype (mouse EP3 α).
The standard assay mixture contained membrane fraction (0.5 mg/ml), [^3 H]-PGE2 in a final volume of […] was incubated for 1 hour at room temperature. The reaction was terminated by addition of 3 ml of ice-cold buffer. The mixture was rapidly filtered through a glass filter (GF/B). The radioactivity associated with the filter was measured by liquid scintillation counting.
Kd and Bmax values were determined from Scatchard plots [Ann. N.Y. Acad. Sci., 51, 660(1949)]. Non-specific binding was calculated as the bond in the presence of an excess ([…]) of unlabeled PGE2. In the experiment for competition of specific [^3 H]-PGE2 binding by the compounds of the present invention, [^3 H]-PGE2 was added at a concentration of 2.5 nM and the compounds of the present invention were at a concentration of 1 mM.
The following buffer was used in all reactions.
Buffer: 10 mM potassium phosphate (pH6.0), 1 mM EDTA, 10 mM MgCl2, 0.1 M NaCl
The dissociation constant (Ki) of each compound was calculated by the following equation.
For the molecule `COC(=O)COc1cccc2c(CCC(=O)NC(c3ccccc3)c3ccccc3)cccc12` [Example 1, [5-(2-diphenylmethylaminocarbonylethyl)naphthyl-1-oxy]acetic Acid Methyl Ester], the Ki (in general, the dissociation constant of the complex between target and ligand, obtained from inhibition or displacement) was 5700 nM.

With `O=C(O)COc1cccc2c(CCC(=O)NC(c3ccccc3)c3ccccc3)cccc12` [Example 2, [5-(2-diphenylmethylaminocarbonylethyl)naphthyl-1-oxy]acetic Acid], the Ki was 11 nM.

As for `O=C(O)COc1cccc2c(CCC(=O)NN(c3ccccc3)c3ccccc3)cccc12` [Example 2a, [5-[2-(3,3-diphenylcarbazoyl)ethyl]naphthyl-1-oxy]acetic Acid], the Ki came to 110 nM.

Turning to `O=C(O)COc1cccc2c(CC(=O)NC(c3ccccc3)c3ccccc3)cccc12` [Example 2d, [5-(diphenylmethylaminocarbonylmethyl)naphthyl-1-oxy]acetic Acid], the Ki was determined as 50 nM.

For the molecule `C[C@@H](NC(=O)CCc1cccc2c(OCC(=O)O)cccc12)c1ccccc1` [Example 2k, [5-[2-((1R)-1-phenylethyl)aminocarbonylethyl]naphthyl-1-oxy]acetic Acid], the Ki stood at 830 nM.

Consider `C[C@H](NC(=O)CCc1cccc2c(OCC(=O)O)cccc12)c1ccccc1` [Example 2l, [5-[2-((1S)-1-phenylethyl)aminocarbonylethyl]naphthyl-1-oxy]acetic Acid], for which the Ki worked out at 890 nM.

As for `O=C(CCc1cccc2c(OCCO)cccc12)NC(c1ccccc1)c1ccccc1` [Example 3, 2-[5-(2-diphenylmethylaminocarbonylethyl)naphthyl-1-oxy]ethanol], the Ki was 26 nM.

As for `NC(=O)COc1cccc2c(CCC(=O)NC(c3ccccc3)c3ccccc3)cccc12` [Example 4, [5-(2-diphenylmethylaminocarbonylethyl)naphthyl-1-oxy]acetic Acid Amide], the Ki stood at 23 nM.

In the case of `CN(C)C(=O)COc1cccc2c(CCC(=O)NC(c3ccccc3)c3ccccc3)cccc12` [Example 4a, N,N-dimethyl-[5-(2-diphenylmethylaminocarbonylethyl)naphthyl-1-oxy]acetic Acid Amide], the Ki was found to be 200 nM.

`O=C(COc1cccc2c(CCC(=O)NC(c3ccccc3)c3ccccc3)cccc12)NCCO` [Example 4b, N-(2-hydroxyethyl)-[5-(2-diphenylmethylaminocarbonylethyl)naphthyl-1-oxy]acetic Acid Amide]: the Ki came out at 1300 nM.

In the case of `O=C(O)COc1cccc2c(CCNC(=O)C(c3ccccc3)c3ccccc3)cccc12` [Example 8, [5-[2-(diphenylmethylcarbonylamino)ethyl]naphthyl-1-oxy]acetic Acid], the Ki was determined as 68 nM.
